According to publication PMC10950897, “VCF1 is a p97/VCP cofactor promoting recognition of ubiquitylated p97-UFD1-NPL4 substrates” (Nature Communications, 2024):
Entries after “also recorded” stand apart in the source; their conditions may differ.

Key:
[1] = test system: p97 (WT, truncations, Y143A); assay: In vitro binding, StrepTactin pulldown of Strep-HA-VCF1 with purified p97 proteins; set-up: species or system human
Procedure: (§1) All in vitro binding experiments were performed in EBC or RIPA buffer as indicated. Recombinant Biotin-tagged K48-linked poly-ubiquitin chains (2−7) and K48-linked poly-ubiquitin chains (2−16) were purchased from R&D Systems and Enzo Life Science, respectively. Recombinant proteins were incubated with Strep-Tactin Sepharose (IBA), Glutathione agarose (Gold Biotechnology) or […] Fab-trap agarose (ChromoTek) overnight on an end-over-end rotator at 4 °C, washed six times with EBC or RIPA buffer, and resuspended in 2×Laemmli sample buffer. For p97, VCF1 or p47 pulldowns, antibodies (0.5 µg/sample) were coupled to agarose beads, incubated with recombinant proteins or cell lysates and washed with the indicated buffer. To assess p97-UFD1-NPL4 binding to ubiquitylated proteins in total cell extracts, U2OS cells were lysed in EBC buffer supplemented with protease and phosphatase inhibitors, sonicated and incubated on ice for 10 min. Lysates were cleared by centrifugation for 10 min at 16,100 × g. Cell lysate (40 µg) was added to recombinant proteins in EBC buffer, incubated overnight on the rotator with […] Fab-trap agarose (ChromoTek), and beads were washed six times.

[2] = test system: p97 with UFD1-NPL4, p47 or FAF1; assay: In vitro binding with p97 cofactors (GST, StrepTactin, p47, p97 or FLAG pulldown); set-up: species or system human
Procedure: as §1

p97-UFD1-NPL4 = assay: Analytical gel filtration; type: binding, human; conditions: equimolar p97, UFD1-NPL4, VCF1 (5 µM), pH 7.4
Procedure: For analytical gel filtration, p97 alone (5 µM hexamer), or p97 (5 µM hexamer) with UFD1-NPL4 (5 µM) and VCF1 (5 µM) were mixed in a total volume of 25 µl in SEC buffer (50 mM HEPES, pH 7.4; 150 mM NaCl). Samples were separated by size exclusion chromatography on a Superose 6 3.2/300 column (Cytiva) equilibrated in SEC buffer using an ÄKTA Purifier 10 FPLC system (GE Healthcare). After the column dead volume (0.35 column volumes), fractions were collected (120 µl) and analyzed by immunoblotting.

[3] = test system: p97 with poly-ubiquitylated mEos3.2; assay: In vitro p97 unfoldase assay (mEos3.2); type: biochemical, human; conditions: p97 100 nM hexamer, UFD1-NPL4 500 nM, VCF1 300 nM, 37 °C
Procedure: Di-ubiquitin-fused mEos3.2 fluorescent protein (diUb-mEos3.2) and ubiquitylation cascade proteins mUbe1, gpc78-ubc7 fusion and ubiquitin were recombinantly expressed in E. coli and purified as described previously. diUb-mEos3.2 substrate was enzymatically polyubiquitylated as described previously. […] The unfolding activity of p97 was monitored in vitro by measuring the decrease in diUb^n-mEos3.2 fluorescence. For this, diUb^n-mEos3.2 (35 nM), p97 (100 nM hexamer), UFD1-NPL4 (500 nM) and VCF1 (300 nM) were mixed as indicated in Eos assay buffer (50 mM HEPES, pH 7.5; 150 mM KCl; 2 mM MgCl2; 5% glycerol; 1 mM DTT) and pre-warmed to 37 °C for 5 min before ATP (2 mM) was added to start the reaction. Unfolding of red mEos3.2 fluorescence was measured every 15 s in a Varian Cary Eclipse spectrofluorometer (excitation: 500 nm; emission: 520 nm) and normalized to the first value after addition of ATP.

[4] = test system: p97-UFD1-NPL4 binding to K48-Ub2-7; assay: FLAG IP: p97-UFD1-NPL4 binding to K48-linked ubiquitin chains, purified proteins; type: biochemical, human; conditions: purified proteins
Procedure: as §1

[5] = test system: p97-UFD1-NPL4 binding to ubiquitylated proteins; assay: FLAG IP: p97-UFD1-NPL4 binding to ubiquitylated proteins in U2OS cell extracts; type: biochemical, human; conditions: U2OS total cell extracts, EBC buffer
Procedure: as §1

ubiquitin (K48-Ub2-16) = assay: StrepTactin pulldown of VCF1 with K48-linked ubiquitin chains; ubiquitin interaction alone or in complex with p97; type: binding
Procedure: as §1

[6] = test system: C1QBP; histone H3 (U2OS/GFP-VCF1 cells); assay: GFP IP immunoblot for C1QBP and Histone H3; type: binding, human; conditions: U2OS/GFP-VCF1 WT
Procedure: Immunoblotting was performed as previously described. Immunoprecipitation (IP) of HA-tagged proteins was performed using Anti-HA Affinity matrix (Roche) under denaturing conditions, unless otherwise stated. GFP-trap and […] Fab-trap agarose (Chromotek) were used according to manufacturer’s instructions. Cell lysis was performed using RIPA buffer (140 mM NaCl; 10 mM Tris-HCl, pH 8.0; 0.1% sodium deoxycholate; 1% Triton X-100; 0.1% SDS; 1 mM EDTA; 0.5 mM EGTA) or EBC buffer (50 mM Tris, pH 7.5; 150 mM NaCl; 1 mM EDTA; 0.5% NP-40, 1 mM DTT). IPs were washed in non-denaturing buffer (50 mM Tris-HCl, pH 7.5; 150 mM NaCl; 0.5 mM EDTA). Cell lysis and IP under partially denaturing conditions were performed using denaturing buffer (20 mM Tris-HCl, pH 7.5; 50 mM NaCl; 0.5% sodium deoxycholate; 0.5% NP-40; 0.5% SDS; 1 mM EDTA). All lysis and wash buffers were supplemented with 1 mM fresh PMSF Protease Inhibitor (Thermo), complete EDTA-free protease inhibitor Cocktail Tablets (Roche), 1.25 mM N-ethylmaleimide (Sigma) and 50 µM PR-619 (Calbiochem).

VCF1: human FAM104A isoform 1, 186 amino acids (UniProt Q969W3); recombinant Strep-HA-tagged
p97 domain bound ([1]; full-length and truncated His6-p97 proteins): interacts with the p97 N-domain | in vitro interaction with p97 ([1]; purified His6-p97 WT, RIPA buffer): readily interacted in vitro | co-purification of UFD1-NPL4 with immobilized VCF1 ([2]; StrepTactin pulldown): dependent on the presence of p97 and the p97-binding proficiency of VCF1 | VCF1 in p47 IP ([2]; VCF1:p47 ratio approx. 1:3): little if any VCF1 is detectable in the p47 IP | VCF1 in p47 IP ([2]; VCF1:p47 ratio approx. 2:1): VCF1 now becomes detectable in p47 IPs | competition with p47 for p97 ([2]; VCF1:p47 ratio approx. 8:1): more efficiently outcompetes p47 binding to p97 | displacement of p97-bound cofactors ([2]; high/increasing concentrations): displaced p47 and UFD1-NPL4 from p97 in vitro | simultaneous binding with UFD1-NPL4, p47 or FAF1 to p97 ([2]; moderate concentrations of VCF1): clearly permissive for the simultaneous binding | p97-independent enrichment in UFD1 pulldowns ([2]; purified Strep-HA-VCF1, no p97): modest p97-independent enrichment | direct interaction with UFD1-NPL4 ([2]; purified proteins, no p97): did not directly interact with UFD1-NPL4 | comigration in size-exclusion chromatography (p97-UFD1-NPL4): comigration of the p97-VCF1-UFD1-NPL4 complex | effect on p97-UFD1-NPL4-mediated unfolding of mEos3.2 [3]: did not accelerate the already highly efficient p97-UFD1-NPL4-mediated unfolding of poly-ubiquitylated mEos3.2 in vitro | effect on UFD1-NPL4 association with p97 [4]: no discernible impact on UFD1-NPL4 association with p97 | effect on p97-UFD1-NPL4 binding to K48 ubiquitin chains ([4]; FLAG IP): strong stimulatory impact on p97-UFD1-NPL4 binding to K48-linked poly-ubiquitin chains in vitro | effect on p97-UFD1-NPL4 binding to ubiquitylated proteins [5]: prominent ability of VCF1 to enhance p97-UFD1-NPL4 binding to ubiquitylated proteins; also recorded: fully dependent on the ubiquitin-binding ability of the UFD1-NPL4 complex | interaction with ubiquitin (ubiquitin (K48-Ub2-16)): neither in isolation nor in complex with p97 did VCF1 display detectable interaction with ubiquitin | C1QBP in VCF1 IP [6]: unable to detect C1QBP in VCF1 IPs | interaction with histone H3 [6]: weak interaction between VCF1 and histone H3
